Converted amounts (≈) assume the structure as drawn. The source made the active and inactive calls. No cut-off for these calls is given here.
Assays:
[1] = system: Pichia sporocuriosa; assay: Antifungal activity against Issatchenkia hanoiensis MTCC 4755 after 24 hrs by well diffusion method; type: functional; details: MTCC 4755, 24 h
[2] = system: [Candida] aaseri; assay: Antifungal activity against Candida aaseri MTCC 1962 after 24 hrs by well diffusion method; type: functional; details: Yamadazyma aaseri, MTCC 1962, 24 h
[3] = system: Staphylococcus aureus; assay: Antibiofilm activity against Staphylococcus aureus MTCC 96 after 24 hrs by crystal violet staining based method; type: functional; details: MTCC 96, 24 h
[4] = system: HepG2; assay: Cytotoxicity against human HepG2 cells after 24 hrs by MTT assay; type: functional, cell-based; details: HepG2, 24 h
[5] = system: Staphylococcus aureus; assay: Induction of intracellular ROS accumulation in Staphylococcus aureus MLS16 MTCC 2940 sessile biofilm cells assessed as fluorescence intensity at 3 ug/ml after 24 hrs by DCFH-DA staining-based fluorescence assay (reference value: 62 +/- 9.8 a.u.); type: functional
[6] = system: Candida albicans; assay: Antifungal activity against Candida albicans MTCC 4748 after 24 hrs by well diffusion method; type: functional; details: MTCC 4748, 24 h
[7] = system: Pichia kudriavzevii; assay: Antifungal activity against Candida krusei MTCC 3020 after 24 hrs by well diffusion method; type: functional; details: MTCC 3020, 24 h
[8] = system: Candida albicans; assay: Antifungal activity against Candida albicans MTCC 3018 after 24 hrs by well diffusion method; type: functional; details: MTCC 3018, 24 h
[9] = system: Candida albicans; assay: Antifungal activity against Candida albicans MTCC 227 after 24 hrs by well diffusion method; type: functional; details: MTCC 227, 24 h
[10] = system: Nakaseomyces glabratus; assay: Antifungal activity against Candida glabrata MTCC 3019 after 24 hrs by well diffusion method; type: functional; details: MTCC 3019, 24 h
[11] = system: Candida albicans; assay: Antifungal activity against Candida albicans MTCC 183 after 24 hrs by well diffusion method; type: functional; details: MTCC 183, 24 h
[12] = system: Staphylococcus aureus; assay: Induction of intracellular ROS accumulation in Staphylococcus aureus MLS16 MTCC 2940 sessile biofilm cells assessed as fluorescence intensity at 1 ug/ml after 24 hrs by DCFH-DA staining-based fluorescence assay (reference value: 62 +/- 9.8 a.u.); type: functional
[13] = system: Pseudomonas aeruginosa; assay: Antibacterial activity against Pseudomonas aeruginosa MTCC 2453 after 24 hrs by well diffusion method; type: functional; details: MTCC 2453, 24 h
[14] = system: Candida albicans; assay: Antifungal activity against Candida albicans MTCC 1637 after 24 hrs by well diffusion method; type: functional; details: MTCC 1637, 24 h
[15] = system: Candida parapsilosis; assay: Antifungal activity against Candida parapsilosis MTCC 1744 after 24 hrs by well diffusion method; type: functional; details: MTCC 1744, 24 h
[16] = system: Staphylococcus aureus; assay: Induction of intracellular ROS accumulation in Staphylococcus aureus MLS16 MTCC 2940 sessile biofilm cells assessed as fluorescence intensity at 4 ug/ml after 24 hrs by DCFH-DA staining-based fluorescence assay (reference value: 62 +/- 9.8 a.u.); type: functional
[17] = system: Candida albicans; assay: Antifungal activity against Candida albicans MTCC 3958 after 24 hrs by well diffusion method; type: functional; details: MTCC 3958, 24 h
[18] = system: Staphylococcus aureus; assay: Antibacterial activity against Staphylococcus aureus MLS16 MTCC 2940 after 24 hrs by well diffusion method; type: functional; details: MLS16 MTCC 2940, 24 h
[19] = system: A549; assay: Cytotoxicity against human A549 cells after 24 hrs by MTT assay; type: functional, cell-based; details: A549, 24 h
[20] = system: Micrococcus luteus; assay: Antibiofilm activity against Micrococcus luteus MTCC 2470 after 24 hrs by crystal violet staining based method; type: functional; details: MTCC 2470, 24 h
[21] = system: HeLa; assay: Cytotoxicity against human HeLa cells after 24 hrs by MTT assay; type: functional, cell-based
[22] = system: Escherichia coli; assay: Antibacterial activity against Escherichia coli MTCC 739 after 24 hrs by well diffusion method; type: functional; details: MTCC 739, 24 h
[23] = system: COLO 205; assay: Cytotoxicity against human COLO205 cells after 24 hrs by MTT assay; type: functional, cell-based; details: COLO 205, 24 h
[24] = system: Candida albicans; assay: Antifungal activity against Candida albicans MTCC 7315 after 24 hrs by well diffusion method; type: functional; details: MTCC 7315, 24 h
[25] = system: Bacillus subtilis; assay: Antibacterial activity against Bacillus subtilis MTCC 121 after 24 hrs by well diffusion method; type: functional; details: MTCC 121, 24 h
[26] = system: Bacillus subtilis; assay: Antibiofilm activity against Bacillus subtilis MTCC 121 after 24 hrs by crystal violet staining based method; type: functional; details: MTCC 121, 24 h
[27] = system: Staphylococcus aureus; assay: Induction of intracellular ROS accumulation in Staphylococcus aureus MLS16 MTCC 2940 sessile biofilm cells assessed as fluorescence intensity at 2 ug/ml after 24 hrs by DCFH-DA staining-based fluorescence assay (reference value: 62 +/- 9.8 a.u.); type: functional
[28] = system: Candida albicans; assay: Antifungal activity against Candida albicans MTCC 3017 after 24 hrs by well diffusion method; type: functional; details: MTCC 3017, 24 h
[29] = system: Escherichia coli; assay: Antibiofilm activity against Escherichia coli MTCC 739 after 24 hrs by crystal violet staining based method; type: functional; details: MTCC 739, 24 h
[30] = system: Micrococcus luteus; assay: Antibacterial activity against Micrococcus luteus MTCC 2470 after 24 hrs by well diffusion method; type: functional; details: MTCC 2470, 24 h
[31] = system: Staphylococcus aureus; assay: Antibiofilm activity against Staphylococcus aureus MLS16 MTCC 2940 after 24 hrs by crystal violet staining based method; type: functional; details: MLS16 MTCC 2940, 24 h
[32] = system: Candida albicans; assay: Antifungal activity against Candida albicans MTCC 854 after 24 hrs by well diffusion method; type: functional; details: MTCC 854, 24 h
[33] = system: Staphylococcus aureus; assay: Antibacterial activity against Staphylococcus aureus MTCC 96 after 24 hrs by well diffusion method; type: functional; details: MTCC 96, 24 h
[34] = system: Raoultella planticola; assay: Antibacterial activity against Klebsiella planticola MTCC 530 after 24 hrs by well diffusion method; type: functional; details: MTCC 530, 24 h
[35] = system: Raoultella planticola; assay: Antibiofilm activity against Klebsiella planticola MTCC 530 after 24 hrs by crystal violet staining based method; type: functional; details: MTCC 530, 24 h
[36] = system: Candida albicans; assay: Antibiofilm activity against Candida albicans MTCC 4748 after 24 hrs by crystal violet staining based method; type: functional; details: MTCC 4748, 24 h
[37] = system: HepG2; assay: Cytotoxicity against human HepG2 cells at >100 uM after 24 hrs by MTT assay; type: functional, cell-based
[38] = system: HeLa; assay: Cytotoxicity against human HeLa cells at >100 uM after 24 hrs by MTT assay; type: functional, cell-based
[39] = system: COLO 205; assay: Cytotoxicity against human COLO205 cells at >100 uM after 24 hrs by MTT assay; type: functional, cell-based
[40] = system: A549; assay: Cytotoxicity against human A549 cells at >100 uM after 24 hrs by MTT assay; type: functional, cell-based

Structure (SMILES)	MIC [1] [mg/L]	MIC [2] [mg/L]	MIC [6] [mg/L]	MIC [7] [mg/L]	MIC [8] [mg/L]	MIC [9] [mg/L]	MIC [10] [mg/L]	MIC [11] [mg/L]	MIC [13] [mg/L]	MIC [14] [mg/L]	MIC [15] [mg/L]	MIC [17] [mg/L]	MIC [18] [mg/L]	MIC [22] [mg/L]	MIC [24] [mg/L]	MIC [25] [mg/L]	MIC [28] [mg/L]	MIC [30] [mg/L]	MIC [32] [mg/L]	MIC [33] [mg/L]	other results
O=C(Cn1nc(C(F)(F)F)c2c(-c3ccccc3)c3ccccc3nc21)NCCN1CCNCC1	7.8 (≈ 16.2 µM)	15.6 (≈ 32.3 µM)	7.8 (≈ 16.2 µM)	15.6 (≈ 32.3 µM)	15.6 (≈ 32.3 µM)	15.6 (≈ 32.3 µM)	15.6 (≈ 32.3 µM)	7.8 (≈ 16.2 µM)	> 125	7.8 (≈ 16.2 µM)	7.8 (≈ 16.2 µM)	15.6 (≈ 32.3 µM)	3.9 (≈ 8.08 µM)	7.8 (≈ 16.2 µM)	15.6 (≈ 32.3 µM)	3.9 (≈ 8.08 µM)	7.8 (≈ 16.2 µM)	3.9 (≈ 8.08 µM)	15.6 (≈ 32.3 µM)	7.8 (≈ 16.2 µM)	IC50 [3]: 4.1 µM; IC50 [4]: 11.2 µM; Flu intensity [5]: 101 a.u.; Flu intensity [12]: 492 a.u.; Flu intensity [16]: 1342 a.u.; IC50 [19]: 10.6 µM; IC50 [20]: 2.5 µM; IC50 [21]: 13.6 µM; IC50 [23]: 12.2 µM; IC50 [26]: 2.2 µM; Flu intensity [27]: 792 a.u.; IC50 [29]: 4.2 µM; IC50 [31]: 2.1 µM; MIC [34]: 3.9 mg/L (≈ 8.08 µM); IC50 [35]: 2.3 µM; IC50 [36]: 5.1 µM
COc1ccc(NC(=O)Cn2nc(C(F)(F)F)c3c(-c4ccccc4)c4ccccc4nc32)cc1	31.2 (≈ 65.5 µM)	62.5 (≈ 131 µM)	62.6 (≈ 131 µM)	62.5 (≈ 131 µM)	62.5 (≈ 131 µM)	31.2 (≈ 65.5 µM)	31.2 (≈ 65.5 µM)	62.5 (≈ 131 µM)	> 125	62.5 (≈ 131 µM)	31.2 (≈ 65.5 µM)	31.2 (≈ 65.5 µM)	62.5 (≈ 131 µM)	62.5 (≈ 131 µM)	31.2 (≈ 65.5 µM)	62.5 (≈ 131 µM)	31.2 (≈ 65.5 µM)	7.8 (≈ 16.4 µM)	31.2 (≈ 65.5 µM)	31.2 (≈ 65.5 µM)	IC50 [4]: 20.4 µM; IC50 [19]: 18.2 µM; IC50 [21]: 22.2 µM; IC50 [23]: 19.6 µM; MIC [34]: 7.8 mg/L (≈ 16.4 µM)
Clc1ccc(COC(Cn2ccnc2)c2ccc(Cl)cc2Cl)c(Cl)c1 (centres undefined) [MICONAZOLE]	7.8 (≈ 18.7 µM)	7.8 (≈ 18.7 µM)	7.8 (≈ 18.7 µM)	7.8 (≈ 18.7 µM)	7.8 (≈ 18.7 µM)	7.8 (≈ 18.7 µM)	7.8 (≈ 18.7 µM)	7.8 (≈ 18.7 µM)	–	7.8 (≈ 18.7 µM)	7.8 (≈ 18.7 µM)	7.8 (≈ 18.7 µM)	–	–	7.8 (≈ 18.7 µM)	–	7.8 (≈ 18.7 µM)	–	7.8 (≈ 18.7 µM)	–	IC50 [36]: 2.6 µM
O=C(O)c1cn(C2CC2)c2cc(N3CCNCC3)c(F)cc2c1=O [CIPROFLOXACIN]	–	–	–	–	–	–	–	–	0.9 (≈ 2.72 µM)	–	–	–	0.9 (≈ 2.72 µM)	0.9 (≈ 2.72 µM)	–	0.9 (≈ 2.72 µM)	–	0.9 (≈ 2.72 µM)	–	0.9 (≈ 2.72 µM)	Flu intensity [5]: 1952 a.u.; Flu intensity [12]: 601 a.u.; Flu intensity [16]: 2010 a.u.; IC50 [26]: 0.6 µM; Flu intensity [27]: 925 a.u.; IC50 [29]: 0.8 µM; MIC [34]: 0.9 mg/L (≈ 2.72 µM)
O=C(Cn1nc(C(F)(F)F)c2c(-c3ccccc3)c3ccccc3nc21)N1CCOCC1	15.6 (≈ 35.4 µM)	62.5 (≈ 142 µM)	31.2 (≈ 70.8 µM)	31.2 (≈ 70.8 µM)	31.2 (≈ 70.8 µM)	62.5 (≈ 142 µM)	31.2 (≈ 70.8 µM)	31.2 (≈ 70.8 µM)	> 125	62.5 (≈ 142 µM)	31.2 (≈ 70.8 µM)	31.2 (≈ 70.8 µM)	31.2 (≈ 70.8 µM)	62.5 (≈ 142 µM)	15.6 (≈ 35.4 µM)	31.2 (≈ 70.8 µM)	31.2 (≈ 70.8 µM)	15.6 (≈ 35.4 µM)	62.5 (≈ 142 µM)	62.5 (≈ 142 µM)	Activity [37]: inactive; Activity [38]: inactive; Activity [39]: inactive; Activity [40]: inactive; MIC [34]: 15.6 mg/L (≈ 35.4 µM)
